From PMC6891762, “Novel Isoxazolidine and γ-Lactam Analogues of Homonucleosides” (Molecules, 2019)
≈ marks a conversion by molar mass, not a printed value.

Tests used:
[1] = system: reverse transcriptase activity of (AMV) and human immunodeficiency virus (HIV); conditions: ref [34],[35],[36],[37],[38]; cited from earlier work
[2] = parameters: method as in PMID 12904074, PMID 20394405, PMID 15743182, PMID 17580846, PMID 17967914; conditions: ref [34],[35],[36],[37],[38]; read-out: 50% cytotoxic concentration (CC50); cited from earlier work
[3] = system: human enzymes (UDG); parameters: method as in PMID 11084051; conditions: ref [23]; cited from earlier work
[4] = system: viral uracil-DNA glycosylase (UDG); parameters: method as in PMID 11084051; conditions: ref [23]; cited from earlier work
[5] = system: herpes simplex virus; conditions: ref [19],[20],[21]; cited from earlier work
[6] = system: vaccinia virus; conditions: ref [19],[20],[21]; cited from earlier work
[7] = system: influenza type virus AH1N1; parameters: method as in PMID 23225323; conditions: ref [22]; cited from earlier work
[8] = system: Hap1 (chronic myeloid leukemia) cells; assay: Cytostatic activity, Hap1; assay type: cell-based; conditions: concentration causing 50% decrease in cell proliferation
Experimental: (§1) The 50% cytostatic inhibitory concentration (IC50) causing a 50% decrease in cell proliferation was determined for all isolated isoxazolidines 14 and γ-lactams 15 toward nine cancerous cell lines (Capan-1 (pancreatic adenocarcinoma), Hap1 (chronic myeloid leukemia), HCT-116 (colorectal carcinoma), NCI-H460 (lung carcinoma), DND-41 (acute lymphoblastic leukemia), HL-60 (acute myeloid leukemia), K-562 (chronic myeloid leukemia), MM.1S (multiple myeloma) and Z-138 (non-Hodgkin lymphoma)) and normal retina (non-cancerous) cells (hTERT RPE-1). Docetaxel, etoposide and stauroporine were used as the reference compounds.
(§2) All assays were performed in 96-well microtiter plates. To each well was added (5−7.5) × 10^4 tumor cells and a given amount of the test compound. The cells were allowed to proliferate at 37 °C in a humidified, CO2-controlled atmosphere. At the end of the incubation period, the cells were counted in a Coulter counter. The IC50 (50% inhibitory concentration) was defined as the concentration of the compound that inhibited cell proliferation by 50%.

[9] = system: NCI-H460 (lung carcinoma) cells; assay: Cytostatic activity, NCI-H460; assay type: cell-based; conditions: concentration causing 50% decrease in cell proliferation
Experimental: as §1, §2

[10] = system: Capan-1 (pancreatic adenocarcinoma) cells; assay: Cytostatic activity, Capan-1; assay type: cell-based
Experimental: as §1, with “RPE-1).” for “RPE-1). Docetaxel, etoposide and stauroporine were used as the reference compounds.”
as §2, with “counter.” for “counter. The IC50 (50% inhibitory concentration) was defined as the concentration of the compound that inhibited cell proliferation by 50%.”

[11] = system: hTERT RPE-1 normal retina (non-cancerous) cells; assay: Cytostatic activity, normal retina cells; assay type: cell-based; conditions: concentration causing 50% decrease in cell proliferation
Experimental: as §1, §2

[12] = system: HCT-116 (colorectal carcinoma) cells; assay: Cytostatic activity, HCT-116; assay type: cell-based; conditions: concentration causing 50% decrease in cell proliferation
Experimental: as §1, §2

[13] = Homo sapiens, CAPAN-1, concentration causing 50% decrease in cell proliferation
[14] = concentration causing 50% decrease in cell proliferation

Row | Structure (SMILES) | IC50 [8] | IC50 [9] | IC50 [10, 14] | IC50 [11] | IC50 [12] | also measured
1 | Cc1cn([C@H]2C[C@H](N=[N+]=[N-])[C@@H](CO)O2)c(=O)[nH]c1=O [AZT, azidothymidine] | – | – | – | – | – | level of inhibition of reverse transcriptase activity [1]: 10 nM; CC50 [2]: 12.1 µM
2 | C[C@H](Cn1cnc2c(N)ncnc21)OCP(=O)(O)O [tenofovir] | – | – | – | – | – | level of inhibition of reverse transcriptase activity [1]: 1 nM
3 | O=c1ccn(C[C@H]2C[C@H](O)[C@@H](CO)O2)c(=O)[nH]1 [Compound 4] | – | – | – | – | – | effect on the human enzymes [3]: only small effect; inhibition of viral uracil-DNA glycosylase (UDG) [4]: selective inhibitor
4 | Nc1nc2c(ncn2C[C@H]2C[C@H](O)[C@@H](CO)O2)c(=O)[nH]1 [Compound 2] | – | – | – | – | – | minimum inhibitory concentration (MIC) [5]: 5 to 20 µg/mL; activity against vaccinia virus [6]: active
5 | O=c1[nH]cnc2c1ncn2C[C@H]1C[C@H](O)[C@@H](CO)O1 [Compound 3] | – | – | – | – | – | IC50 [7]: 25.2 µg/mL (≈ 94.6 µM)
6 | COc1cc([C@@H]2c3cc4c(cc3[C@@H](O[C@@H]3O[C@@H]5CO[C@@H](C)O[C@H]5[C@H](O)[C@H]3O)[C@H]3COC(=O)[C@H]23)OCO4)cc(OC)c1O [Etoposide, reference compound] | – | – | – | – | – | IC50 ([8]; Homo sapiens, HAP1): 0.04 µM; IC50 ([9]; Homo sapiens, NCI-H460): 1.35 µM; IC50 [10, 13]: 0.15 µM; IC50 ([11]; hTERT-RPE1): 0.23 µM; IC50 ([12]; Homo sapiens, HCT-116): 1.03 µM
7 | Nc1ncnc2c1ncn2C[C@H]1C[C@H](O)[C@@H](CO)O1 [Compound 1] | – | – | – | – | – | minimum inhibitory concentration (MIC) [5]: 5 to 20 µg/mL; activity against vaccinia virus [6]: active
8 | COC(=O)[C@H]1C[C@H](CN2CCC(=O)NC2=O)N(C)O1 (relative stereo) [trans-14g, Methyl trans-3-{[2,4-dioxotetrahydropyrimidin-1(2H)-yl]metyl}-2-methylisoxazolidine-5-carboxylate] | 58.1 µM | 48.6 µM | 38.3 µM | > 100 µM | 61 µM | –
9 | COC(=O)[C@@H]1C[C@H](Cn2cc(Br)c(=O)[nH]c2=O)N(C)O1 (relative stereo) [cis-14d, Methyl cis-3-{[5-bromo-2,4-dioxo-3,4–dihydropyrimidin-1(2H)-yl]metyl}-2-methylisoxazolidine-5-carboxylate] | > 100 µM | 62.3 µM | 95 µM | > 100 µM | 86.4 µM | –
10 | COC(=O)[C@@H]1C[C@H](Cn2cc(F)c(=O)[nH]c2=O)N(C)O1 (relative stereo) [cis-14c, Methyl cis-3-{[5-fluoro-2,4-dioxo-3,4–dihydropyrimidin-1(2H)-yl]metyl}-2-methylisoxazolidine-5-carboxylate] | > 100 µM | > 100 µM | > 100 µM | > 100 µM | > 100 µM | –
11 | COC(=O)[C@@H]1C[C@H](Cn2cc(Cl)c(=O)[nH]c2=O)N(C)O1 (relative stereo) [cis-14e, Methyl cis-3-{[5-chloro-2,4-dioxo-3,4–dihydropyrimidin-1(2H)-yl]metyl}-2-methylisoxazolidine-5-carboxylate] | 44.2 µM | 48.8 µM | 51.2 µM | > 100 µM | 26.7 µM | –
12 | Cc1cn(C[C@H]2C[C@H](O)C(=O)N2C)c(=O)[nH]c1=O (relative stereo) [trans-15b, trans-1-[(4-Hydroxy-1-methyl-5-oxopyrrolidin-2-yl)methyl]-5-methylpyrimidine-2,4(1H,3H)-dione] | – | – | – | – | – | IC50 ([8]; Homo sapiens, HAP1): 86.5 µM; IC50 ([9]; Homo sapiens, NCI-H460): 55.6 µM; IC50 [10, 13]: 49.2 µM; IC50 ([11]; hTERT-RPE1): > 100 µM; IC50 ([12]; Homo sapiens, HCT-116): 53.3 µM
